In patent publication US20240409585A1, “MACROCYCLIC IMMUNOMODULATORS” (priority 2021, published 2024):
Bridge positions count the residues as written; N and C are the ends. Square brackets hold non-standard residues; d marks the D form. Peptide text beside a SMILES is read from it. * marks the point of attachment. ξ: configuration not given here. Phe(4-COOH) = N[C@@H](Cc1ccc(C(=O)O)cc1)C(=O)O; Bip = N[C@@H](Cc1ccc(-c2ccccc2)cc1)C(=O)O; Lys(Me3) = C[N+](C)(C)CCCC[C@H](N)C(=O)O; Phe(3-OMe) = COc1cccc(C[C@H](N)C(=O)O)c1; Phe(3-Me) = Cc1cccc(C[C@H](N)C(=O)O)c1; Phe(4-F) = N[C@@H](Cc1ccc(F)cc1)C(=O)O; Val(3-OH) = CC(C)(O)[C@H](N)C(=O)O; 3Pal = N[C@@H](Cc1cccnc1)C(=O)O; 4Pal = N[C@@H](Cc1ccncc1)C(=O)O; Cha = N[C@@H](CC1CCCCC1)C(=O)O; Ile(3ξ) = CCC(C)[C@H](N)C(=O)O; Thr(3ξ) = CC(O)[C@H](N)C(=O)O; Ala(CN) = N#CC[C@H](N)C(=O)O; NMeNle = CCCC[C@H](NC)C(=O)O; Carboxymethyl = O=C(O)C*; NMeA = CN[C@@H](C)C(=O)O; Orn = NCCC[C@H](N)C(=O)O; Dab = NCC[C@H](N)C(=O)O; Dap = NC[C@H](N)C(=O)O; ξC = NC(CS)C(=O)O

biological target: T1, PE-labeled human PD-L1-Ig binding to Jurkat cell line over-expressing human PD-1 (Jurkat-PD-1) (Homo sapiens, UniProt Q15116); assay: Jurkat-PD-1 Cell Binding High-Content Screening Assay (CBA): Method 1; conditions: Jurkat-hPD-1 cells, PE-labeled PD-L1-Ig 20 nM final; read-out: Jurkat HPDL1 PD1 IC50 (uM) (Method 1)
T1 construct: expressed in transfected cells; host or cells: Jurkat
T1 sequence (Q15116 25-288): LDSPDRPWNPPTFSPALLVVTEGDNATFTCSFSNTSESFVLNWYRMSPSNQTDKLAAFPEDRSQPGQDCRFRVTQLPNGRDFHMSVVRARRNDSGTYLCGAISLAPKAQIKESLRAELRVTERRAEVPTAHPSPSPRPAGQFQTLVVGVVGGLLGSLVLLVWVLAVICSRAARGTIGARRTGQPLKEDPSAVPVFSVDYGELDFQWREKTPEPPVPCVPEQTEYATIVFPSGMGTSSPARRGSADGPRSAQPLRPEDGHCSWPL

Structure (SMILES) | IC50 [µM]
CC(=O)NCCCC[C@@H]1NC(=O)[C@H](C(C)C)NC(=O)[C@H](CC2CCCCC2)NC(=O)[C@H](CCN)NC(=O)[C@@H](CC(C)C)NC(=O)[C@H](C)N(C)C(=O)[C@H](CCC(N)=O)NC(=O)[C@H](Cc2ccc(-c3ccccc3)cc2)NC(=O)[C@H](Cc2ccc(OCC(=O)O)cc2)NC(=O)[C@H](Cc2cccc(C)c2)NC(=O)[C@H](CC(=O)O)NC(=O)[C@H](Cc2ccc(OCC(=O)O)cc2)NC(=O)[C@H](Cc2ccncc2)NC(=O)CSC[C@@H](C(=O)N[C@@H](CCN)C(N)=O)NC1=O [Compound 2203] ({CH2CO}-[4Pal]Y(Carboxymethyl)D[Phe(3-Me)]Y(Carboxymethyl)[Bip]Q[NMeA][dL][Dab][Cha]VK(Ac)C[Dab]-NH2; thioether N-14) | 0.01
CCC(C)[C@@H]1NC(=O)[C@H](Cc2ccc(-c3ccccc3)cc2)NC(=O)[C@H](C(C)C)NC(=O)[C@H](Cc2c[nH]c3ccccc23)NC(=O)[C@H](CC(=O)O)NC(=O)[C@H](Cc2ccc(OCC(=O)O)cc2)NC(=O)[C@H](Cc2cnc[nH]2)NC(=O)CSC[C@@H](C(=O)N[C@@H](CCN)C(N)=O)NC(=O)[C@H](CO)NC(=O)[C@H](C(C)(C)O)NC(=O)[C@H](CC2CCCCC2)NC(=O)[C@H](CCN)NC(=O)[C@@H](CC(C)C)NC(=O)[C@H](C)N(C)C1=O (stereo partly drawn) [Compound 2204] ({CH2CO}-HY(Carboxymethyl)DWV[Bip][Ile(3ξ)][NMeA][dL][Dab][Cha][Val(3-OH)]SC[Dab]-NH2; thioether N-14) | 0.01
CCCC[C@H]1C(=O)N[C@@H](Cc2ccc(C(=O)O)cc2)C(=O)N[C@@H](CC(=O)O)C(=O)N[C@@H](Cc2c[nH]c3ccccc23)C(=O)N[C@@H](C(C)C)C(=O)N[C@@H](Cc2ccc(-c3ccccc3)cc2)C(=O)N[C@@H](C(C)O)C(=O)N(C)[C@@H](C)C(=O)N[C@H](CC(C)C)C(=O)N[C@@H](CCN)C(=O)N[C@@H](CC2CCCCC2)C(=O)N[C@@H](C(C)C)C(=O)N[C@@H](C(C)O)C(=O)N[C@H](C(=O)N[C@@H](CCN)C(N)=O)CSCC(=O)N1C (stereo partly drawn) [Compound 2206] ({CH2CO}-[NMeNle][Phe(4-COOH)]DWV[Bip][Thr(3ξ)][NMeA][dL][Dab][Cha]V[Thr(3ξ)]C[Dab]-NH2; thioether N-14) | 0.04
CCC(C)[C@@H]1NC(=O)[C@H](Cc2ccc(-c3ccccc3)cc2)NC(=O)[C@H](C(C)C)NC(=O)[C@H](Cc2c[nH]c3ccccc23)NC(=O)[C@H](CC(=O)O)NC(=O)[C@H](Cc2ccc(O)cc2)NC(=O)[C@H](Cc2ccncc2)NC(=O)CSC[C@@H](C(=O)N[C@@H](CN)C(=O)O)NC(=O)[C@H](C(C)O)NC(=O)[C@H](C(C)C)NC(=O)[C@H](CC2CCCCC2)NC(=O)[C@H](CC(N)=O)NC(=O)[C@@H](CC(C)C)NC(=O)[C@H](C)N(C)C1=O (stereo partly drawn) [Compound 2210] ({CH2CO}-[4Pal]YDWV[Bip][Ile(3ξ)][NMeA][dL]N[Cha]V[Thr(3ξ)]C[Dap]-OH; thioether N-14) | 0.02
COc1cccc(C[C@@H]2NC(=O)[C@H](Cc3cccnc3)NC(=O)CSCC(C(=O)N[C@@H](CN)C(=O)O)NC(=O)[C@H](CO)NC(=O)[C@H](C(C)C)NC(=O)[C@H](CC(C)C)NC(=O)[C@H](CC(N)=O)NC(=O)[C@@H](CC(C)C)NC(=O)[C@H](C)N(C)C(=O)[C@H](C(C)C)NC(=O)[C@H](Cc3ccc(-c4ccccc4)cc3)NC(=O)[C@H](C(C)C)NC(=O)[C@H](Cc3c[nH]c4ccccc34)NC(=O)[C@H](CC(=O)O)NC2=O)c1 (stereo partly drawn) [Compound 2211] ({CH2CO}-[3Pal][Phe(3-OMe)]DWV[Bip]V[NMeA][dL]NLVS[ξC][Dap]-OH; thioether N-14) | 0.08
CCC(C)[C@@H]1NC(=O)[C@H](Cc2ccc(-c3ccccc3)cc2)NC(=O)[C@H](C(C)C)NC(=O)[C@H](Cc2c[nH]c3ccccc23)NC(=O)[C@H](CC(=O)O)NC(=O)[C@H](Cc2ccc(O)cc2)NC(=O)[C@H](Cc2ccncc2)NC(=O)CSCC(C(=O)N[C@@H](CCN)C(=O)O)NC(=O)[C@H](C(C)O)NC(=O)[C@H](C(C)C)NC(=O)[C@H](CC2CCCCC2)NC(=O)[C@H](CC(N)=O)NC(=O)[C@@H](CC(C)C)NC(=O)[C@H](C)N(C)C1=O (stereo partly drawn) [Compound 2213] ({CH2CO}-[4Pal]YDWV[Bip][Ile(3ξ)][NMeA][dL]N[Cha]V[Thr(3ξ)][ξC][Dab]-OH; thioether N-14) | 0.02
CCC(C)[C@@H]1NC(=O)[C@H](Cc2ccc(-c3ccccc3)cc2)NC(=O)[C@H](C(C)C)NC(=O)[C@H](Cc2c[nH]c3ccccc23)NC(=O)[C@H](CC(=O)O)NC(=O)[C@H](Cc2ccc(O)cc2)NC(=O)[C@H](Cc2ccncc2)NC(=O)CSCC(C(=O)N[C@@H](CCCN)C(=O)O)NC(=O)[C@H](C(C)O)NC(=O)[C@H](C(C)C)NC(=O)[C@H](CC2CCCCC2)NC(=O)[C@H](CC(N)=O)NC(=O)[C@@H](CC(C)C)NC(=O)[C@H](C)N(C)C1=O (stereo partly drawn) [Compound 2214] ({CH2CO}-[4Pal]YDWV[Bip][Ile(3ξ)][NMeA][dL]N[Cha]V[Thr(3ξ)][ξC][Orn]-OH; thioether N-14) | 0.02
CCC(C)[C@@H]1NC(=O)[C@H](Cc2ccc(-c3ccccc3)cc2)NC(=O)[C@H](C(C)C)NC(=O)[C@H](Cc2c[nH]c3ccccc23)NC(=O)[C@H](CC(=O)O)NC(=O)[C@H](Cc2ccc(O)cc2)NC(=O)[C@H](Cc2ccncc2)NC(=O)CSCC(C(=O)N[C@@H](CCCCN)C(=O)O)NC(=O)[C@H](C(C)O)NC(=O)[C@H](C(C)C)NC(=O)[C@H](CC2CCCCC2)NC(=O)[C@H](CC(N)=O)NC(=O)[C@@H](CC(C)C)NC(=O)[C@H](C)N(C)C1=O (stereo partly drawn) [Compound 2215] ({CH2CO}-[4Pal]YDWV[Bip][Ile(3ξ)][NMeA][dL]N[Cha]V[Thr(3ξ)][ξC]K-OH; thioether N-14) | 0.03
CCC(C)[C@@H]1NC(=O)[C@H](Cc2ccc(-c3ccccc3)cc2)NC(=O)[C@H](C(C)C)NC(=O)[C@H](Cc2c[nH]c3ccccc23)NC(=O)[C@H](CC(=O)O)NC(=O)[C@H](Cc2ccc(O)cc2)NC(=O)[C@H](CCCC[N+](C)(C)C)NC(=O)CSCC(C(=O)NCC(=O)O)NC(=O)[C@H](C(C)O)NC(=O)[C@H](C(C)C)NC(=O)[C@H](CC2CCCCC2)NC(=O)[C@H](CCN)NC(=O)[C@@H](CC(C)C)NC(=O)[C@H](C)N(C)C1=O (stereo partly drawn) [Compound 2217] ({CH2CO}-[Lys(Me3)]YDWV[Bip][Ile(3ξ)][NMeA][dL][Dab][Cha]V[Thr(3ξ)][ξC]G-OH; thioether N-14) | 0.01
CCC(C)[C@@H]1NC(=O)[C@H](Cc2ccc(-c3ccccc3)cc2)NC(=O)[C@H](C(C)C)NC(=O)[C@H](Cc2c[nH]c3ccccc23)NC(=O)[C@H](CC(=O)O)NC(=O)[C@H](Cc2ccc(O)cc2)NC(=O)[C@H](CC#N)NC(=O)CSCC(C(=O)NCC(=O)O)NC(=O)[C@H](C(C)O)NC(=O)[C@H](C(C)C)NC(=O)[C@H](CC2CCCCC2)NC(=O)[C@H](CCN)NC(=O)[C@@H](CC(C)C)NC(=O)[C@H](C)N(C)C1=O (stereo partly drawn) [Compound 2218] ({CH2CO}-[Ala(CN)]YDWV[Bip][Ile(3ξ)][NMeA][dL][Dab][Cha]V[Thr(3ξ)][ξC]G-OH; thioether N-14) | 0.01

More lines, now with the values ahead:

IC50 [µM] | Structure (SMILES)
0.06 | CCCC[C@H]1C(=O)N[C@@H](Cc2ccc(C(=O)O)cc2)C(=O)N[C@@H](CC(=O)O)C(=O)N[C@@H](Cc2cccc(C)c2)C(=O)N[C@@H](Cc2ccc(C(=O)O)cc2)C(=O)N[C@@H](Cc2ccc(-c3ccccc3)cc2)C(=O)N[C@@H](Cc2ccc(C(=O)O)cc2)C(=O)N(C)[C@@H](C)C(=O)N[C@H](CC(C)C)C(=O)N[C@@H](CCN)C(=O)N[C@@H](CC2CCCCC2)C(=O)N[C@@H](C(C)(C)O)C(=O)N[C@@H](CO)C(=O)N[C@H](C(=O)N[C@@H](CCN)C(N)=O)CSCC(=O)N1C [Compound 2205] ({CH2CO}-[NMeNle][Phe(4-COOH)]D[Phe(3-Me)][Phe(4-COOH)][Bip][Phe(4-COOH)][NMeA][dL][Dab][Cha][Val(3-OH)]SC[Dab]-NH2; thioether N-14)
0.01 | Cc1cccc(C[C@@H]2NC(=O)[C@H](CC(=O)O)NC(=O)[C@H](Cc3ccc(C(=O)O)cc3)NC(=O)[C@H](Cc3ccc(F)cc3)NC(=O)CSC[C@@H](C(=O)N[C@@H](CCN)C(N)=O)NC(=O)[C@H](CCC(=O)O)NC(=O)[C@H](C(C)(C)O)NC(=O)[C@H](CC3CCCCC3)NC(=O)[C@H](CCN)NC(=O)[C@@H](CC(C)C)NC(=O)[C@H](C)N(C)C(=O)[C@H](Cc3ccc(C(=O)O)cc3)NC(=O)[C@H](Cc3ccc(-c4ccccc4)cc3)NC(=O)[C@H](Cc3ccc(C(=O)O)cc3)NC2=O)c1 [Compound 2207] ({CH2CO}-[Phe(4-F)][Phe(4-COOH)]D[Phe(3-Me)][Phe(4-COOH)][Bip][Phe(4-COOH)][NMeA][dL][Dab][Cha][Val(3-OH)]EC[Dab]-NH2; thioether N-14)
0.01 | Cc1cccc(C[C@@H]2NC(=O)[C@H](CC(=O)O)NC(=O)[C@H](Cc3ccc(C(=O)O)cc3)NC(=O)[C@H](Cc3ccc(F)cc3)NC(=O)CSC[C@@H](C(=O)N[C@@H](CCN)C(N)=O)NC(=O)[C@H](CCC(=O)O)NC(=O)[C@H](C(C)C)NC(=O)[C@H](CC3CCCCC3)NC(=O)[C@H](CCN)NC(=O)[C@@H](CC(C)C)NC(=O)[C@H](C)N(C)C(=O)[C@H](Cc3ccc(C(=O)O)cc3)NC(=O)[C@H](Cc3ccc(-c4ccccc4)cc3)NC(=O)[C@H](Cc3ccc(C(=O)O)cc3)NC2=O)c1 [Compound 2208] ({CH2CO}-[Phe(4-F)][Phe(4-COOH)]D[Phe(3-Me)][Phe(4-COOH)][Bip][Phe(4-COOH)][NMeA][dL][Dab][Cha]VEC[Dab]-NH2; thioether N-14)
0.01 | Cc1cccc(C[C@@H]2NC(=O)[C@H](CC(=O)O)NC(=O)[C@H](Cc3ccc(C(=O)O)cc3)NC(=O)[C@H](Cc3ccc(F)cc3)NC(=O)CSC[C@@H](C(=O)N[C@@H](CCN)C(N)=O)NC(=O)[C@H](CCC(=O)O)NC(=O)[C@H](C(C)O)NC(=O)[C@H](CC3CCCCC3)NC(=O)[C@H](CCN)NC(=O)[C@@H](CC(C)C)NC(=O)[C@H](C)N(C)C(=O)[C@H](Cc3ccc(C(=O)O)cc3)NC(=O)[C@H](Cc3ccc(-c4ccccc4)cc3)NC(=O)[C@H](Cc3ccc(C(=O)O)cc3)NC2=O)c1 (stereo partly drawn) [Compound 2209] ({CH2CO}-[Phe(4-F)][Phe(4-COOH)]D[Phe(3-Me)][Phe(4-COOH)][Bip][Phe(4-COOH)][NMeA][dL][Dab][Cha][Thr(3ξ)]EC[Dab]-NH2; thioether N-14)
